Series [1] deals with PAH activity in AML12 cells. Type of series: cell-based. The protocol:
Serum biochemical parameters including brain natriuretic peptide (BNP), creatine kinase (CK), lactate dehydrogenase (LDH), alanine aminotransferase (ALT), and aspartate aminotransferase (AST) were measured using commercial ELISA kits (Nanjing Jiancheng Bioengineering Institute, Nanjing, China) according to the manufacturer’s instructions. Superoxide dismutase (SOD), and malondialdehyde (MDA) levels in liver and heart tissues were measured using assay kits from Aifang Biotechnology (Changsha, China). Phenylalanine and tyrosine concentrations in the cell were determined using an ELISA kit from Abmart (Shanghai, China).
Mouse hepatocellular cell lines (AML12), purchased from the Shanghai Cell Bank of Chinese Academy of Sciences (Shanghai, China), were cultured in Dulbecco’s Modified Eagle Medium (DMEM) supplemented with 10% fetal bovine serum (FBS) and 2 mM L-glutamine and 1% pyruvate and maintained at 37 °C in a […], 5% CO2 incubator. Cells were seeded at a density of 5 × 10^5 cells/well in 6-well plates. […] Cells’ survival rate was detected by Cell Counting Kit-8 (CCK8) Reagents (Thermo Scientific, Singapore).

The subject of series [2] is cardiac tissues of DOX-induced CHF rats. Kind of series: Heart histopathology (H&E, Masson) and TUNEL apoptosis detection. As to conditions: DOX group. The class given is in vivo, rat. The protocol: Cardiac tissues were fixed in 4% paraformaldehyde, embedded in paraffin, and sectioned at 4–5 μm thickness. Hematoxylin and eosin (H&E) staining was performed to assess histopathological changes, while Masson’s trichrome staining was used to evaluate cardiac fibrosis. Apoptosis in cardiac tissues was detected using a TUNEL assay kit (C1088, Beyotime, Shanghai, China).

Series [3] concerns urinary metabolites of DOX-induced CHF rats. Put plainly: Urine metabolomics (UHPLC-Q-TOF/MS). Type of series: in vivo, rat. The protocol: Urine samples (200 μL) were mixed with 200 μL of protein precipitant (methanol: acetonitrile, 1:1) and vortexed for 30 s at 4 °C. Samples were sonicated for 10 min in an ice bath, then incubated at – 20 °C for 1 h. After centrifugation at 13,000 rpm for 15 min at 4 °C, 200 μL of supernatant was transferred to sample vials for analysis. A pooled quality control (QC) sample was prepared by combining 10 μL of supernatant from each sample. Sample analysis was performed using a Waters H-Class UPLC system coupled to a Triple TOF 6600 mass spectrometer (AB SCIEX, USA). Chromatographic separation was achieved on an ACQUITY UPLC HSS T3 column (2.1 × 100 mm, 1.7 μm; Waters) using 0.1% formic acid in water (mobile phase A) and acetonitrile (mobile phase B). […] Mass spectrometry was performed in both positive and negative ionization modes. Key parameters included: ion spray voltage, 5500/− 4500 V; m/z range, 60–1000; gas 1 and 2, 60 psi; curtain gas, 35 psi; accumulation time, 1.2 s; source temperature, 550 °C; declustering potential, 60 V. Information-dependent acquisition (IDA) was used with the following settings: m/z range, 50–1000; accumulation time, 0.05 s; collision energy, 40 ± 20 V. Data processing was performed using XC-MS plus software for peak alignment, extraction, and normalization. Metabolite identification was carried out using the MetDNA database. Multivariate statistical analysis, including principal component analysis (PCA) and orthogonal partial least squares discriminant analysis (OPLS-DA), was conducted using MetaboAnalyst 5.0. Differential metabolites were identified based on variable importance in projection (VIP) scores > 1.0 and P < 0.05. Fold change (FC) values were used to determine up- or down-regulation. Metabolic pathway analysis was performed using MetaboAnalyst 5.0, with significance set at P < 0.05.

The next series can be described thus: Rat body weight. As to conditions: DOX group vs CON group, experiment I. Type of series: in vivo. The protocol: Experiment I, 48 rats were randomly divided into six groups: (1) the CON group; (2) the DOX group; (3) the DOX + enalapril (ENP, positive control, 1.8 mg/kg) group; (4) the DOX + SXT at low dose group (4 g/kg); (5) the DOX + SXT at middle dose group (8 g/kg); and […] the DOX + SXT at high dose group (16 g/kg). Except those rats in the CON group, the remaining rats received DOX at a 2.5 mg/kg per injection to a cumulative dose of 15 mg/kg. The dose of SXT for the low-dose group was set at 4 g/kg, based on the minimum human clinical daily dose (48.5 g, Table S2) converted to an equivalent rat dose using body surface area normalization (48.5 g/70 kg × 6.3 ≈ 4.4 g/kg, rounded to 4 g/kg). To evaluate a clear dose–response relationship, the medium and high doses were established at 8 g/kg and 16 g/kg, respectively, corresponding to 2 fold and 4 fold the low dose. […] Heart function was monitored by echocardiography analysis at day 39, and the CHF model was considered to be successfully established when the left ventricular ejection fraction (LVEF%) values were reduced to 50%. […]

Turning to `COc1cccc2c1C(=O)c1c(O)c3c(c(O)c1C2=O)C[C@@](O)(C(=O)CO)C[C@@H]3O[C@H]1C[C@H](N)[C@H](O)[C@H](C)O1` [DOX, Doxorubicin], the “phenylalanine levels in AML12 cells” value in series [1] is “significant increases”. In addition, the “phenylalanine metabolism (Phe level, Phe/Tyr ratio)” value in series [1] (AML12 cells, DOX vs CON, neomangiferin vs DOX, dose-dependent) is listed as “significantly suppressed”. The “H&E and Masson's trichrome staining of cardiac tissue” value in series [2] was “inflammatory infiltration and increased collagen deposition”. Besides, in series [3] (DOX group vs CON group), the “urinary levels of 4-(2-aminophenyl)-2,4-dioxobutanoate, hippurate, phenylacetylglycine, 5-methoxyindoleacetate, phenylpyruvate, and phenylalanine” value is on record as “significantly increased”; the “urinary levels of indole-3-acetaldehyde, urea, anthranilate, indoleacetic acid, tryptamine, N-acetyl-L-glutamate, tyrosine, and glutamate” value was “significantly decreased”. The urinary phenylalanine level result in series [3] (day 10 after DOX administration, P < 0.001) is reported as “sharp increase”. For the same compound, the body weight result in “Rat body weight” is “significant reduction”.

For the origin of these results see PMC12794274, “Therapeutic potential of Sheng-Xian-Tang in doxorubicin-induced chronic heart failure by regulation of phenylalanine metabolism disruption” (Chinese Medicine, 2026).
